What all share (assay): Metabolic profiling in hepatocytes
Common to all, as to type: in vitro ADME

Data set [1] deals with dog hepatocytes. The settings on record: 1 h, 10 µM. The procedure: (§1) For metabolite profiling, MG3.2HCl (10 µM) was incubated with mouse, rat, dog, monkey, and human hepatocytes (300,000 cells/mL for the mouse and 1 × 10^6 cells/mL for the other species) in Leibovitz L-15 medium, at 37 °C. Incubations were performed in a 12-well plate under shaking. Aliquots of the incubation samples, together with a control in medium alone, were taken at t = 0 and 60 min; the metabolism was stopped by the addition of an equal volume of chilled ACN and the samples were centrifuged at 1100 rpm for 20 min. The supernatant was stored at −20 °C until analysis. The analyses were performed using an HPLC system (Agilent) online with a photodiode array (PDA) detector (Agilent) coupled to a Mass Spectrometer Q-TOF 2 (Waters), ESI positive, following the method reported in Table 1.
(§2) The software utilized for searching the accurate masses of possible metabolites was Metabolynx, version 4.1 (Waters Corporation, Milford, MA, USA), with a mass window of 40 mDa. Samples were then re-run in MS/MS mode by selecting the masses of possible metabolites found. The collision energy used to obtain MS/MS data was 25 eV. The proposed identity of metabolites was based on their accurate mass (using LockSpray correction), with an accuracy of +/−5 mDa. MS/MS analyses were performed to verify that peaks were drug-related and to obtain structural information from the fragment ions formed. The structures of some metabolites are proposed. The approximate relative amounts of parent and metabolites were determined from the absolute areas taken from a selected ion chromatogram at the metabolite masses with a mass window of 0.04 Da.

In data set [2] the test system is human hepatocytes. Conditions: human, 60 min, 10 µM. The procedure: as §1, §2
Data set [3] has as its system monkey hepatocytes. The settings on record: 1 h, 10 µM. The procedure:
as §1, §2

For data set [4], the system named is mouse hepatocytes. Conditions: 1 h, 10 µM. The procedure: as §1, §2
In data set [5] the test system is rat hepatocytes. Conditions: rat, 60 min, 10 µM. The procedure: as §1, §2

From article PMC10216263, “Favorable Preclinical Pharmacological Profile of a Novel Antimalarial Pyrrolizidinylmethyl Derivative of 4-amino-7-chloroquinoline with Potent In Vitro and In Vivo Activities” (Biomolecules, 2023) come the findings set out here.

For the molecule `OC(Nc1ccnc2cc(Cl)ccc12)C12CCCN1CCC2` (centres unmarked) [M2], the “% of Total Drug Related Material” value in data set [1] is listed as 27%; in data set [2] it was 1%; in data set [3], 1%; in data set [4] it was 3%; in data set [5] it was 6%.
